Experimental data published in US20230082611A1, “COMPOSITIONS AND METHODS FOR THE TREATMENT OF RESPIRATORY SYNCYTIAL VIRUS” (Cidara Therapeutics, Inc., priority 2019, published 2023).

Tests used:
Format in all cases: cell-based
RSV A2 strain = assay: RSV microneutralization assay, RSV A2 strain; details: human respiratory syncytial virus; MOI 0.002, HEp-2 cells, day 6
Method: (§1) HEp-2 cells (ATCC #CCL-23) were seeded at 5E4/well/200 μL in DMEM (Fisher cat #11965118) supplemented with 10% heat-inactivated (HI) fetal bovine serum (HI-FBS; Fisher cat #10-082-147), 1× penicillin-streptomycin (P/S, 100 μg/mL; Fisher cat #MT30002C), and 1× L-glutamine (L-Gln, 2 mM; Fisher cat #25030-164) in 96-well tissue culture treated plates (Fisher cat #08-772-17) and incubated overnight at 37° C. and 5% CO2. Duplicate 10-fold serial dilutions of compound in DMEM with 2% HI-FBS, 1× P/S, 2 mM L-Gln were prepared in 96-well tissue culture plates at 60 μL/well. The RSV Long strain (RetroVirox, San Diego), RSV A2 strain (Virapur, San Diego), RSV B1 strain (RetroVirox, San Diego), or RSV strain CH18537 (RetroVirox, San Diego), were diluted in DMEM with 2% HI-FBS, 1× P/S, 2 mM L-Gln and 60 μL/well added to 60 μL compound for a multiplicity of infection (MOI) of 0.002 (Long, A2), 0.003 (B1), or 0.004 (CH18537). Virus only (no drug) and cells only (no virus, no drug) controls were included on each plate. The compound-virus mix was incubated for 1 h at 37° C. and 5% CO2. After 1 h, medium was removed from HEp-2 cells by aspiration and wells washed once with 100 μL/well 1×PBS pH 7.4 (Fisher cat #MT21040CM). The compound-virus mix (100 μL/well) was added to the cells and incubated for 1 h at 37° C. and 5% CO2 prior to addition of 100 μL/well of DMEM with 2% HI-FBS, 1× P/S, 2 mM L-Gln (200 μL final vol) and incubation at 37° C. and 5% CO2. On day 6 post infection, supernatant was aspirated and cells fixed with 100 μL/well ice-cold 80% acetone in 1×PBS for 20 min at 4° C. The acetone was aspirated and plates air-dried for 20 min at room temperature. The plates were washed 3× with 200 μL/well 1×PBS, 0.05% Tween-20 (PBST) and blocked with 200 μL/well 5% non-fat dry milk (Fisher cat #50-195-952) in PBST for 1 h with shaking (500 rpm) on an orbital plate shaker. The blocking solution was discarded and cells incubated with 100 μL/well mouse anti-F protein antibody (MilliporeSigma cat #MAB8599) diluted 1:2,000 in diluent (blocking solution diluted 1:1 in 1×PBS pH 7.4) for 2 h with shaking. Plates were washed 5× with 300 μL/well PBST and incubated with 100 μL/well HRP-conjugated goat anti-mouse IgG antibody (SouthernBiotech cat #1030-05) diluted 1:1,000 in diluent for 1 h with shaking. Plates were washed 5× with 300 μL/well PBST and incubated with 100 μL/well TMB substrate (Fisher cat #BDB555214) for ˜5 min. The reaction was stopped with 100 μL/well 1N H2SO4. Absorbance was read at 450 nm with an EnSpire multimode plate reader (PerkinElmer). The mean A450 for the cells only control was subtracted from all A450 values, and the percent virus neutralisation calculated for each compound concentration, relative to the virus only control.

RSV Long strain = assay: RSV microneutralization assay, RSV Long strain; details: human respiratory syncytial virus; MOI 0.002, HEp-2 cells, day 6; read-out: RSV Long EC50
Method: as §1, with “Duplicate” for “HEp-2 cells (ATCC #CCL-23) were seeded at 5E4/well/200 μL in DMEM (Fisher cat #11965118) supplemented with 10% heat-inactivated (HI) fetal bovine serum (HI-FBS; Fisher cat #10-082-147), 1× penicillin-streptomycin (P/S, 100 μg/mL; Fisher cat #MT30002C), and 1× L-glutamine (L-Gln, 2 mM; Fisher cat #25030-164) in 96-well tissue culture treated plates (Fisher cat #08-772-17) and incubated overnight at 37° C. and 5% CO2. Duplicate”

RSV Long = assay: RSV plaque reduction assay, RSV Long; details: human respiratory syncytial virus, HEP-2 cells, 6 days, read-out: EC50 RSV Long MOI 0.0001
Method: (§2) An RSV plaque reduction assay was performed according to the following protocol. On Day 1, HEP-2 cells were seeded in 24-well plates at 5×10E5 cells/well/500 ul. On Day 2, once the cells are at 100% confluency, the cells were infected at a viral dilution of approximately 30 plaques per well in DMEM+2% FBS infection buffer and treated with compound. The medium was aspirated and cells were infected with 90 ul of viral dilution per well. Then, cells were treated with 10 ul of 10× compound resulting in a final concentration of between 1 nM-10 uM of the compound. The cells were incubated for 2 h at room temperature, rocking every 15 minutes. After 2 h, the inoculum/compound mixture is removed. 450 ul of overlay media (1 part Avicel 2.5%; 1 part DMEM+2% FBS) was added to the well and the cells were treated with 50 ul of 10× compound resulting in a final concentration of 1 nM-10 uM of the compound. The cells were incubated for 6 days at 37 deg C.
(§3) For staining and quantification: The infected cell plates were fixed with 100% methanol for 10 to 30 minutes. The plates were washed three times with 5% milk/PBS, 1 mL/well. A primary antibody, goat anti-RSV polyclonal antibody (Chemicon Cat #AB1128), diluted in 5% milk/PBS at 1:1000 was put onto each well. […] The plates were rinsed 3 times with deionized water, air-dried and the number of plaques was counted.

RSV B1 = assay: RSV plaque reduction assay, RSV B1; details: human respiratory syncytial virus, HEP-2 cells, 6 days, read-out: EC50 RSV B1 MOI 0.0001
Method: as §2, §3

- EC50 (RSV A2 strain): 0.88 nM
- EC50 (RSV Long strain): 0.22 nM
- EC50 (RSV Long): 17 nM
- EC50 (RSV B1): 13 nM
Compound: C#CCOCCOCCOCCOCCOCCCCn1c(CN2C(=O)C3(CCN(C(=O)OC(C)(C)C)CC3)c3ccncc32)nc2cc(Cl)ccc21 [Int-42]
